Patent publication US11951137B2, “Compositions comprising unsaturated fatty acids and nitric oxide releasing compounds and use thereof for enhancing cognitive and related functions” (SOCIETE DES PRODUITS NESTLE S.A., priority 2008, dated 2024)

Test system: human iCell neurons
Test: Amyloid beta 42 ELISA on supernatant, neuronal model
Conditions: treated 2 days, 3 concentrations, FIG. 2
Protocol: For a neuronal model, human iCell neurons (Cellular Dynamics International) were plated in 96-well plates and were grown to neuronal maturity by culturing for 2 weeks.
In each model, cells were then treated with DHA (UFA), arginine and citrulline (NORC's) at 3 different concentrations (see table 1 in FIG. 1) for 2 days. The supernatant was used to perform Amyloid beta 42 (A131-42) ELISA Kit, Human (KHB3441, Thermo Fisher Scientific).

CC/C=C\C/C=C\C/C=C\C/C=C\C/C=C\C/C=C\CCC(=O)O [DHA, docosahexaenoic acid]
release of Aβ1-42: no effect

NC(=O)NCCC[C@H](N)C(=O)O [citrulline]
release of Aβ1-42: no effect
